We go through 1 compound from patent US9238034B2, “FN14 antagonists and therapeutic uses thereof” (THE TRANSLATIONAL GENOMICS RESEARCH INSTITUTE, priority 2013, dated 2016).

Series [1] addresses T1, Fn14 (Homo sapiens, UniProt Q9NP84).
T1 construct: the human Fc fragment-tagged Fn14 extracellular domain (R&D Systems) was captured
T1 sequence (Q9NP84 28-80 limits assumed): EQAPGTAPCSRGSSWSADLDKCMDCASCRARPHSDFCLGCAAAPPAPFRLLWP
The series is described as follows: Surface Plasmon Resonance assay, Fn14-Fc sensor surface. Format: binding. As to conditions: Fn14 surface, SPR, 25 degrees Celsius. The procedure: (§1) Surface Plasmon Resonance (SPR) Assay. The binding affinity of at least one of the compounds (e.g., L524-0366) to TWEAK and Fn14-Fx was determined using a BIAcore T100 optical biosensor (GE Healthcare) at 25 degrees Celsius at the Arizona Proteomics Consortium. Recombinant human TWEAK (20 μg/mL in 10 mM HEPES pH 7.4, 150 mM NaCl, 3 mM EDTA, 0.05% Tween 20) or recombinant human Fn14-Fc (20 μg/mL in 10 mM NaOAc pH 4.0) were covalently coupled to separate flow cells on a BIAcore CM5 sensor chip using standard amine coupling chemistry as per manufacturer's protocol. Final immobilization levels were 6000 Response Units (RU) for TWEAK and 13,000 RU for FN14-Fc. The first flow path of the chip was treated with the same coupling and blocking reagents without protein and was used as a reference for each binding cycle. Functionality of the TWEAK and the Fn14-Fc sensor surfaces were verified by injecting Fn14-Fc and TWEAK over them respectively. Serial dilutions of L524-0366 or cycloheximide (control) from 0 to 50 μM were made in running buffer (10 mM HEPES pH 7.4, 150 mM NaCl, 3 mM EDTA, 1% DMSO). […] Equilibrium dissociation constants for the small molecules were calculated by fitting the double reference subtracted data to Req=((CRmax)/(KD+C))+RI, where RI is the bulk refractive index contribution.

The subject of series [2] is T98G glioma cells. The series is described as follows: Cytotoxicity assay, CellTiter-Glo. Format: cell-based, human. As to conditions: up to 50 μM, 72 hr. The procedure: Cytotoxicity Assay. Cytotoxic effects of drugs on glioma cells were analyzed by quantifying the ATP, an indicator of metabolically active cells. Briefly, glioma cells were seeded in tissue culture treated white 96-well plates at 3×10^3 cells/well in 80 μL Opti-MEM media (Invitrogen) and incubated for 24 hr at 37° C. After 24 hr incubation, 20 μL of 5× drug solution at required concentration in Opti-MEM was added to each well and incubated for 72 hr at 37° C. Opti-MEM/DMSO mixture without drug was used as negative control and 20 μM staurosporine was used as positive control. At the end of 72 hr incubation, the number of viable cells were quantified by using CellTiter-Glo assay kit (Promega, Madison, Wis.) according to the manufacturer's instructions. Luminescence signal measured was normalized to negative control to determine % cell viability.

Series [3] addresses T2, TWEAK (Homo sapiens, UniProt O43508).
T2 sequence (O43508 94-249 limits assumed): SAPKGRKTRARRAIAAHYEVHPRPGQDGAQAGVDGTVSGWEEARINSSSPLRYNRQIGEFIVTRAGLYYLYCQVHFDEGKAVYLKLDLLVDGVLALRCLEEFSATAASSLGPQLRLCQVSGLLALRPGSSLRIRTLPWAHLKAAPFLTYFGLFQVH
The series is described as follows: Surface Plasmon Resonance assay, TWEAK sensor surface. It counts as binding. The conditions noted are these: SPR, 0 to 50 μM. The procedure: as §1

The test system of series [4] is T98G glioma cells. The experiment in a line: Cell migration assay, modified Boyden chamber, TWEAK induced. Format: cell-based, human. As to conditions: 10 μM, 5 hours. As for the experimental part:
Cell Migration Assay. The effect of pharmacological inhibition of TWEAK/Fn14 signaling on glioma cell migration was analyzed using a modified Boyden chamber (Neuroprobe, Cabin John, Md.) as described previously (Lamszus, K., et al. (1998) Journal international du cancer 75, 19-28; Brockmann, M. A., et al. (2003) Neurosurgery 52, 1391-1399). Each well contains a […] pore size Nucleopore filter that had been coated with 50 μg/mL PureCol® (Bovine Collagen) (Advanced Biomatrix, Poway, Calif.). T98G glioma cells were treated with selected drug compound for 1 hr and then seeded at 4.8×10^4 cells in 100 μL of DMEM with 0.1% bovine serum assay medium to the top well of the chamber. TWEAK was added to the lower wells of the chamber using DMEM with 0.1% bovine serum albumin as assay medium. After incubation for 5 hours at 37° C., nonmigrated cells were scraped off the upper side of the filter, and filters were stained with 4′,6-diamidino-2-phenylindole (DAPI). Nuclei of migrated cells were counted in 5 high-power fields (HPF) with a 20× objective. Values were assessed in triplicate.

Series [5] deals with TNFα-induced NF-κB activity. The experiment in a line: Counter-screen NF-κB luciferase assay, NF-κB-Luc reporter cells stimulated with TNFα. Format: cell-based, human. The procedure: Briefly, Fn14-NF-κB-Luc reporter cells, (Fn14 overexpressing HEK293 NF-κB luciferase cells), were seeded in tissue culture treated white 96-well plates at 1×10^4 cells/well in 80 μL Opti-MEM media (Invitrogen) and incubated for 48 hr at 37° C. After 48 hr incubation, 10 μL of the drug solution (200 μM) in DMSO was added to the designated wells at a final concentration of 20 μM. After 1 hr of drug incubation at 37° C., 10 μL of 10× purified recombinant TWEAK (Peprotech Inc.; 300 ng/mL) in 1 mg/mL BSA in PBS was added to each well and incubated for 5 hr at 37° C. DMSO alone was used as a negative control whereas anti-TWEAK antibody suspended in DMSO was used as a positive control for the assay. Luminescent signal was determined using Bright-Glo assay kit (Promega, Madison, Wis.) according to the manufacturer's instructions and normalized to negative control. A counter-screen assay was carried out using TNFα to stimulate NF-κB activity in NF-κB-Luc reporter cells (HEK293 NF-κB luciferase cells). The counter-screen assay was performed similar to the drug screening assay described above, except 10 μL of 10× purified recombinant TNFα (R&D Scientific; 300 ng/mL) in 1 mg/mL BSA in PBS was added to each well instead of TWEAK for NF-κB activation. […] IC50 values for dose response curve were determined using the curve fitting functionality of GraphPad Prism software.

In turn, `O=C(c1cn(-c2cccc(Cl)c2)nn1)N1CCSCC1` [Compound L524-0366] gave a dissociation constant (Kd) in series [1] of 7.12 µM. Also, in series [2], the cytotoxicity result is “did not demonstrate any cytotoxicity”. For the same compound, in series [3], the “binding to TWEAK” value is “not to the TWEAK surface”. The “TWEAK-induced T98G cell migration” value in series [4] is “completely suppressed”. In series [5] (Homo sapiens, NF-κB-Luc cells stimulated with TNFα, 0.75 μM to 250 μM, read-out: IC50, TNFα stimulated luciferase induction), the IC50 was 31 µM. The “inhibition of TNFα-induced NF-κB driven luciferase activity” value in series [5] (NF-κB-Luc cells, 20 μM) is recorded as “only minor inhibition”.
